The target in data set [1] is T1, human TLR7 (Homo sapiens, UniProt Q9NYK1).
T1 construct: expressed in transfected cells; host or cells: HEK293 (HEK-Blue-7)
T1 sequence (Q9NYK1 27-1049): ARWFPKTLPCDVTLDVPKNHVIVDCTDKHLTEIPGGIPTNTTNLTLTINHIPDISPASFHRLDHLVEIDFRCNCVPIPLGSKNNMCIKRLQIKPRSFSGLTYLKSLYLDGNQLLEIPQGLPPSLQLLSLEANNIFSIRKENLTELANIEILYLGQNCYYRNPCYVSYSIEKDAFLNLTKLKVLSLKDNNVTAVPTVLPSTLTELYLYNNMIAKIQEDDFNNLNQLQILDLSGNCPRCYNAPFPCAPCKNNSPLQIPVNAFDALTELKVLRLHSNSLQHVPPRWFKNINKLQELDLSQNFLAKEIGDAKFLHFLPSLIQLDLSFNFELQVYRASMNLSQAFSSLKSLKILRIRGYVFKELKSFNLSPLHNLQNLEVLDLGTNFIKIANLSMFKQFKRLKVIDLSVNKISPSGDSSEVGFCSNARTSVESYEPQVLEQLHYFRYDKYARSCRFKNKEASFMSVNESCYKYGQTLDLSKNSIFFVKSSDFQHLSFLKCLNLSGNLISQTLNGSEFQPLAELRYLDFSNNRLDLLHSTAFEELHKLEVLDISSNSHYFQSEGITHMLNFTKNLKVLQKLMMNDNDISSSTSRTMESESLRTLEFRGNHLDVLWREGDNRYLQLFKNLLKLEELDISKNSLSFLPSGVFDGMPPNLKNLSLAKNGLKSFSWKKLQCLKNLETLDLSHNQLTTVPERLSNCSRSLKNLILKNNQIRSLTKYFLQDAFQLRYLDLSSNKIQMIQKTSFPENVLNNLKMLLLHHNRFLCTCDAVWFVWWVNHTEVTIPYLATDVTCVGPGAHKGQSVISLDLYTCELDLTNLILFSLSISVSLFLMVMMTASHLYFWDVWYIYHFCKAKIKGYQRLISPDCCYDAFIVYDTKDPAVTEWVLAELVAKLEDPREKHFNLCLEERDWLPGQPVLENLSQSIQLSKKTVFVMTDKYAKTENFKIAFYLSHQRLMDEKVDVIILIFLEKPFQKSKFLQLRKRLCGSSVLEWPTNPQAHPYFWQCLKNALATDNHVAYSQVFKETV
The data set can be described thus: Human TLR7 reporter gene assay (NF-κB induction), HEK-Blue-7 cells. The class given is cell-based.
Text: (§1) Human TLR-7/-8 Reporter Gene Assays (NF-κB Induction).
(§2) The induction of NF-κB was quantified using HEK-Blue-7 (hTLR7-specific) and HEK-Blue-8 (hTLR8-specific) cells. HEK293 cells stably co-transfected with human TLR7 or human TLR8, MD2, and secreted alkaline phosphatase (sAP), were maintained in HEK-Blue™ Selection medium containing zeocin and normocin. Stable expression of secreted alkaline phosphatase (sAP) under control of NF-κB/AP-1 promoters is inducible by appropriate TLR agonists, and extracellular sAP in the supernatant is proportional to NF-κB induction.
(§3) HEK293 cells stably co-transfected with the appropriate hTLR (or NOD) and secreted alkaline phosphatase (sAP) were maintained in HEK-Blue™ Selection medium. Stable expression of secreted alkaline phosphatase (sAP) under control of NF-κB/AP-1 promoters is inducible by appropriate TLR/NOD agonists, and extracellular sAP in the supernatant is proportional to NF-κB induction.

For data set [2], the target named is T2, human TLR8 (Homo sapiens, UniProt Q9NR97).
T2 construct: expressed in transfected cells; host or cells: HEK293 (HEK-Blue-8)
T2 sequence (Q9NR97 27-1041): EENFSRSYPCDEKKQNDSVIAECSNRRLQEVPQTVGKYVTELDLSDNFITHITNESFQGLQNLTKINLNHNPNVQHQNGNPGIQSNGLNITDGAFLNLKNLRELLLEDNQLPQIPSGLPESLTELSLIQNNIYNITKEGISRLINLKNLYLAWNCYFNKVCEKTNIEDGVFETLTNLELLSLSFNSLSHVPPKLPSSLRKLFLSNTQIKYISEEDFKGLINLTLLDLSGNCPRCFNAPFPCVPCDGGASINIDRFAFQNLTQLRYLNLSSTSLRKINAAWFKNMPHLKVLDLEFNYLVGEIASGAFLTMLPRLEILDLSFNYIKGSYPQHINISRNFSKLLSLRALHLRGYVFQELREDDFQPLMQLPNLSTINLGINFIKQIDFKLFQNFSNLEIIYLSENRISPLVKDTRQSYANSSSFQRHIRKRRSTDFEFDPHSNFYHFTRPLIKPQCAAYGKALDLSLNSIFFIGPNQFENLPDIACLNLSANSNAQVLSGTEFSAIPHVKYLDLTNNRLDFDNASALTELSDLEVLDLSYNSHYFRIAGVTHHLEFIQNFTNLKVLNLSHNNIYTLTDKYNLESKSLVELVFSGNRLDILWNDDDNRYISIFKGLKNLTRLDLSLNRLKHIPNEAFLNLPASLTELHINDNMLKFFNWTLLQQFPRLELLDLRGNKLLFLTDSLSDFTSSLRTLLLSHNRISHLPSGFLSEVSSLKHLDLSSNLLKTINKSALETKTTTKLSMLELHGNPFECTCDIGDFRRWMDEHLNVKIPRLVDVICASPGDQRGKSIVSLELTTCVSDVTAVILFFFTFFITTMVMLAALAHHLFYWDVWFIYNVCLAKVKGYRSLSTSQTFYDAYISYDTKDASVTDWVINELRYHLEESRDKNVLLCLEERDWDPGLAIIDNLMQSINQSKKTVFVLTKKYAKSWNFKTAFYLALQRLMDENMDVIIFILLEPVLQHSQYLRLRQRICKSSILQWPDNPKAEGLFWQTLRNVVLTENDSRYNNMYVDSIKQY
The data set can be described thus: Human TLR8 reporter gene assay (NF-κB induction), HEK-Blue-8 cells. The class given is cell-based. On the technique in general: Reporter assays use an easily measured gene product as a stand-in for the process of interest.
Text: as §1, §2, §3

For data set [3], the system named is human PBMCs. The experiment in a line: IFN-α induction in human PBMCs (ELISA). It counts as cell-based. The following applies: PBMC. (ELISA stands for enzyme-linked immunosorbent assay.)
Experimental: (§4) Fresh human peripheral blood mononuclear cells (hPBMC) were isolated from human blood obtained by venipuncture with informed consent and as per institutional guidelines on Ficoll-Hypaque gradients as described elsewhere. Aliquots of PBMCs (10^5 cells in 100 μL/well) were stimulated for 12 h with graded concentrations of test compounds. Supernatants were isolated by centrifugation, and were assayed in triplicates using either high-sensitivity multi-subtype IFN-α ELISA kits (PBL Interferon Source, Piscataway, N.J. and R&D Systems, Inc., Minneapolis, Minn.), or analyte-specific multiplexed cytokine/chemokine bead array assays as reported by us previously.
For data set [4], the system named is peripheral blood mononuclear cells (PBMCs). The data set can be described thus: Metabolic stability in peripheral blood mononuclear cells (microdialysis, LC-MS/MS). The class given is in vitro ADME, human. Particulars: PBMCs.
Experiment in data set [5]: as above
The class given is in vitro ADME, human. The following applies: human, peripheral blood mononuclear cells (PBMCs).

For data set [6], the system named is human natural killer (NK), cytokine-induced killer (CIK) and nominal B lymphocytes. The experiment in a line: Flow-cytometric CD69 upregulation in lymphocytic subsets of whole human blood. It counts as cell-based. On the procedure: Flow-Cytometric Immunostimulation Experiments.
CD69 upregulation was determined by flow cytometry and modified for rapid-throughput. Briefly, heparin-anticoagulated whole blood samples were obtained by venipuncture from healthy human volunteers with informed consent and as per guidelines approved by the University of Kansas Human Subjects Experimentation Committee. Serial dilutions of selected imidazopyridine compounds (and imiquimod, used as a reference compound) were performed using a Bio-Tek Precision 2000 XS liquid handler in sterile 96-well polypropylene plates, to which were added 100 μL aliquots of anticoagulated whole human blood. The plates were incubated at 37° C. for 16.5 h. Negative (endotoxin free water) controls were included in each experiment. Following incubation, fluorochrome-conjugated antibodies (CD3-PE, CD56-APC, CD69-PE-Cy7, 10 μL of each antibody, Becton-Dickinson Biosciences, San Jose, Calif.) were added to each well with a liquid handler, and incubated at 37° C. in the dark for 30 min. […] CD69 activation in the major lymphocytic populations, viz., natural killer lymphocytes (NK cells: CD3^−CD56^+), cytokine-induced killer phenotype (CIK cells: CD3^+CD56^+), nominal B lymphocytes (CD3^−CD56^−), and nominal T lymphocytes (CD3^+CD56^−) were quantified using FlowJo v 7.0 software (Treestar, Ashland, Oreg.). […]

In data set [7] the test system is human foreskin fibroblasts (HFFs). The experiment in a line: Metabolic stability in human foreskin fibroblasts (microdialysis, LC-MS/MS). It counts as in vitro ADME.
Experiment in data set [8]: as above
The class given is in vitro ADME. Particulars: human, human foreskin fibroblasts (HFFs).

A short description of data set [9]: Chemical stability of the free base (autoxidation). The class given is physicochemical. Particulars: rapid formation of 3-ol A5 by autoxidation. The source says: A ring-contracted 2-amino-3-alkylindole analogue compound A4, accessed via sequential C-alkylation of commercially available 2-nitrophenylacetonitrile, reduction of the 2-nitro group, and Brønsted acid-promoted, microwave-assisted intramolecular cyclization (Scheme A1).

Data set [10] deals with human PBMCs. The experiment in a line: Proinflammatory cytokine induction in human PBMCs / human blood (bead array). Particulars: human PBMCs and whole human blood. The class given is cell-based.
Experimental: Immunoassays for Interferon (IFN)-α, and Cytokines.
as §4

Where two headings read alike, the source gives them in different places. Some results are limits rather than exact numbers.

As a reminder, the EC50 is the concentration needed to bring the measured effect to its halfway point. Consider `CCCCc1nc2c(N)nccc2n1Cc1ccccc1` [Compound 5, 1-Benzyl-2-butyl-1H-imidazo[4,5-c]pyridin-4-amine], for which the EC50 in data set [1] (primary screen, read-out: TLR7-specific agonistic activity EC50) was 1570 nM. Besides, the TLR8 activity result in [2] (TLR7 series) was “negligible”.
As a reminder, the half-life is the time needed for the level to fall by half in the phase considered. Higher therefore signals slow decline. `CCCCc1nc2c(N)nc(NCc3ccc(CN)cc3)cc2n1Cc1ccccc1` [Compound 19p, N^6-(4-(aminomethyl)benzyl)-1-benzyl-2-butyl-1H-imidazo[4,5-c]pyridine-4,6-diamine] showed an EC50 in [3] of 300 nM. The “time by which parent was depleted” value in data set [4] was at most 8 h. Moreover, the half-life was 3 h in data set [5] and under 1 h in data set [8]. For the same molecule, in data set [6], the “CD69 expression in natural killer, cytokine-induced killer and B lymphocytic subsets” value is “as active as the reference TLR7 agonist IMDQ”. Also, in data set [7] (FIG. 5B, Table A, cell type not stated), the “number of major metabolites identified by LC-MS/MS” value is on record as 6. For the same molecule, in data set [7] (HFFs, at 1 hour), the “parent detected by LC-MS” value was “nearly undetectable”.
`CCCCc1nc2c(N)nc(NCc3ccco3)cc2n1Cc1ccccc1` [Compound 19k, 1-Benzyl-2-butyl-N^6-(furan-2-ylmethyl)-1H-imidazo[4,5-c]pyridine-4,6-diamine]: the “TLR7-agonistic potency relative to compound 5” value in [1] (fold over compound 5) is recorded as “approximately twenty-fold”. Moreover, the EC50 in data set [1] (human TLR7-specific reporter gene assay, Inactive = no activity up to 500 μg/mL, read-out: hTLR7-agonistic Activity (EC50)) was 75 nM; in data set [3] it was 700 nM.
For `CCCCC1C(N)=Nc2ccccc21` (stereo not drawn) [Compound A4], the “stability of the free-base” value in data set [9] was “exceedingly unstable”. In addition, the “hTLR8 Agonistic Activity (EC50)” value in [2] (human TLR 8-specific reporter gene assays) was “Unstable”. In data set [2] (hydrochloride salt), the “TLR8-agonistic activity of the hydrochloride salt” value was “inactive”.
For the molecule `CCCCCn1c(N)nc2c(C)cccc21` [Compound A31a, 4-Methyl-1-pentyl-1H-benzo[d]imidazol-2-amine], in data set [2] (primary screens, read-out: TLR8-agonistic activity EC50), the EC50 was 1130 nM. Besides, the “induction of proinflammatory cytokines, IL-12p40 and IFN-γ” value in data set [10] was “induction”. Further, in data set [6], the “CD69 upregulation in natural killer (NK) lymphocytes” value was “complete absence”.

The values above are taken from patent US10471139B2, “Toll-like receptor agonists” (The University of Kansas, priority 2013, dated 2019).
